Measurements published in BindingDB's records for doi:10.1021/np9904410 (Virginia Polytechnic Institute and State University, 2000).

Columns and labels:
[1] = Inhibition of topoisomerase 1 in Saccharomyces cerevisiae RS321N in galactose medium by microtiter plate assay
[2] = Inhibition of topoisomerase 1 in Saccharomyces cerevisiae RS321N in glucose medium by microtiter plate assay

Row | IC50 [1] | IC50 [2] | SMILES
1 | 4.81 µM | 5.71 µM | COc1ccc(/C=C\c2cc(OC)c(OC)c(OC)c2)c(O)c1O [combretastatins A-1]
2 | 138 µM | > 201 µM | COc1ccc(CCc2cc(OC)c(OC)c(OC)c2)c(O[C@H]2O[C@@H](CO)[C@H](O)[C@@H](O)[C@@H]2O)c1O
